Data from patent US20180256515A1, “ORAL AMPHETAMINE COMPOSITION” (Adare Pharmaceuticals, Inc., priority 2017, published 2018).
Structures can show the parent of a compound that is named as a salt. Where two headings read alike, the source gives them in different places.

Assay: Water solubility (statement)

What does the source list for CC(N)Cc1ccccc1 (racemic) [Amphetamine sulfate, racemic amphetamine sulfate]?
solubility: freely soluble; solubility (listed as Racemic amphetamine sulfate): freely water soluble
